The values that follow are results of earlier work, collected in patent US12156864B2, “Analogs of cyclobenzaprine and amitryptilene” (TONIX PHARMACEUTICALS HOLDING CORP, priority 2017, dated 2024).

As usually defined, the half-life is how long it takes for the measured level to halve.

Series [1] has as its system veterans and males with PTSD.
In series [2] the target is histaminergic1 (H1) receptor (Homo sapiens, UniProt P35367).
The test system of series [3] is fibromyalgia patients. The conditions noted are these: cyclobenzaprine 10 to 40 mg, 12-week period.
Series [4] has as its system α1-adrenergic receptor.
The target in series [5] is serotonin-2A (5-HT2A) receptor (Homo sapiens, UniProt P28223).
Sequence of serotonin-2A (5-HT2A) receptor (P28223 whole entry, species assumed): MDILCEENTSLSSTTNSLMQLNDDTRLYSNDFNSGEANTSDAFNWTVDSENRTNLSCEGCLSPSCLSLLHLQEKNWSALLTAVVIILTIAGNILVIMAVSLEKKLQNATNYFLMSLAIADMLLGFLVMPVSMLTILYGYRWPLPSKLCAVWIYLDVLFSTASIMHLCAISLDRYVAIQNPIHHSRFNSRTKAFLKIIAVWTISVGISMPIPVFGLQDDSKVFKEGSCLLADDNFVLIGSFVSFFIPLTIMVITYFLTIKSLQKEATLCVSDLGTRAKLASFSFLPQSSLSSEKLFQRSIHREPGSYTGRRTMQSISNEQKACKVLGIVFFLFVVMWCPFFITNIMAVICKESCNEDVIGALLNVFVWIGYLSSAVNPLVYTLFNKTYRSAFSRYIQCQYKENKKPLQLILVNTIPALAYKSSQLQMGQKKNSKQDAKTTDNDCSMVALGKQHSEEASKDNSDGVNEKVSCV
The test system of series [6] is patients. Conditions: oral doses sufficient to treat PTSD-associated sleep disorders.
The conditions of series [7]: humans; metabolite formed via pathway b (N-dealkylation).
Series [8] deals with PTSD combat subsample. The conditions noted are these: combat subsample (N=77) of a pooled analysis.

Sequence of histaminergic1 (H1) receptor (P35367 whole entry): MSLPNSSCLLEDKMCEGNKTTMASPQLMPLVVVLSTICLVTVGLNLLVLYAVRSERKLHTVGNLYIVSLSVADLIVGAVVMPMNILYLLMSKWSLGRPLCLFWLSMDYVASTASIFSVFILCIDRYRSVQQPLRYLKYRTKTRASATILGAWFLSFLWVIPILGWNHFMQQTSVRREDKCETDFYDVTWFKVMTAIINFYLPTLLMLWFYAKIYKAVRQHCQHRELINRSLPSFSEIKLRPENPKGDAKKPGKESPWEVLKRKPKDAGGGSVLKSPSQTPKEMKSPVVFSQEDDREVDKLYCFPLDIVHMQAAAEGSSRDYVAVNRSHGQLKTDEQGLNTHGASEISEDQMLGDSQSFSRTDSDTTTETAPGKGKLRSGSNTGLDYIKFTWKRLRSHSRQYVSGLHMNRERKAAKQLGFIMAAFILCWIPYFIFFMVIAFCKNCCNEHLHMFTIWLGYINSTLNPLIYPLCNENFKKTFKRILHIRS

For the compound `CN[C@H]1CC[C@@H](c2ccc(Cl)c(Cl)c2)c2ccccc21` [Sertraline], the “efficacy in PTSD” value in series [1] is on record as “failed to show efficacy”.

In the case of `CN(C)CCC=C1c2ccccc2C=Cc2ccccc21` [cyclobenzaprine, 3-(5H-dibenzo[a,d]cyclohepten-5-ylidene)-N,N-dimethyl-1-propanamine], the “binding and antagonist activity at H1 receptor” value in series [2] was “high affinity binding and antagonist activity”. Moreover, in series [3], the “quality of sleep and pain score” value is recorded as “significantly improved”; the “total number of tender points and muscle tightness” value was “reduction”. The “binding and antagonist activity at α1-adrenergic receptor” value in series [4] was “high affinity binding and antagonist activity”. The “binding and antagonist activity at 5-HT2A receptor” value in series [5] is “high affinity binding and antagonist activity”. Further, the next-day side effect entry in series [6] is on record as “drowsiness the next day”.

As for `CNCCC=C1c2ccccc2C=Cc2ccccc21` [nor-cyclobenzaprine], the half-life in series [7] was roughly 48 h.

Take `COc1ccc(C(CN(C)C)C2(O)CCCCC2)cc1` (stereo not drawn) [venlafaxine ER]: the “effect on PTSD or disability” value in series [8] is “no effect”.
